# Experimental data reported in patent US12649749B2, “Preparation and application of tricyclic pyrimidinone compound and its composition” (NEUSCO BIOTECH LIMITED, priority 2020, dated 2026).
# Columns and labels:
# [1] = target: T1, Recombinant human Lp-PLA2 enzyme (Homo sapiens, UniProt Q13093); assay: Recombinant human Lp-PLA2 (rhLp-PLA2) assay (PED6 assay); assay type: biochemical; details: PED6 substrate; recombinant human Lp-PLA2 at 4 nM or 110 pM; 30 min pre-incubation; fluorescence ex 480/em 540; read-out: rhLp-PLA2 (pIC50) (converted)
# T1 sequence (Q13093 22-441): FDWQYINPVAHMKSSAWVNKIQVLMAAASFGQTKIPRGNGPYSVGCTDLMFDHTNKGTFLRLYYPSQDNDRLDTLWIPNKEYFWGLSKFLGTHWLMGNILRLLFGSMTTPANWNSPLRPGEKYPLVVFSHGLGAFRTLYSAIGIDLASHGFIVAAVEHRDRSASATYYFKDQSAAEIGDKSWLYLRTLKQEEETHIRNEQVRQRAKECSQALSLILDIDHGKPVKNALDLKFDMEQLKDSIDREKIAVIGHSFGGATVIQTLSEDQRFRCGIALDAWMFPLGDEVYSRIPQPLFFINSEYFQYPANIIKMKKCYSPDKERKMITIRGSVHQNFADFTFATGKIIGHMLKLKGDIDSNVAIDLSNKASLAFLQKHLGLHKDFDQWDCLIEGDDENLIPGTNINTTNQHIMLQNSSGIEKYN
# From the text: (1) Recombinant Human Lp-PLA2 (rhLp-PLA2) Assay (also Known as PED6 Assay)
# PED6 is a fluorescently labeled phospholipid that can be purchased directly from Invitogene or Molecular Probes. There is a fluorescence-quenching p-nitrophenyl group on the Sn3 position, and a Bodipy fluorescein (FL) group on the sn2 position. Once it is cleaved by the Lp-PLA2 enzyme, the FL group is released, resulting in enhanced fluorescence.
# Assay method: The compound to be tested (as shown in Table 1) was mixed with DMSO solution at a volume ratio of 1:3, diluted to prepare a source plate of a 384-well microplate. Then 0.01 μl of the compound was transferred via an ECHO liquid dispenser from the source plate to a 384-well Greiner 784076 plate, and 5 microliters of a buffer composed of 50 mM HEPES, pH 7.4, 150 mM NaCl, 1 mM CHAPS (the buffer solution contains Recombinant human Lp-PLA2 enzyme at a concentration of 4 nM or 110 pM) was added to each well on the plate. The plate was centrifuged at 500 rpm for 10 seconds. After 30 minutes of pre-incubation, 5 microliters of the above buffer solution was added to a 384-well Greiner784076 plate, and the plate was centrifuged at 500 rpm for 10 seconds.
# [2] = target: T2, Lp-PLA2 enzyme in human plasma (Homo sapiens, UniProt Q13093); assay: Human plasma Lp-PLA2 assay (Thio-PAF assay); assay type: biochemical; details: mixed human plasma; 2-thio-PAF substrate with CPM; 30 min pre-incubation; fluorescence ex 380/em 485; read-out: Thio-PAF (pIC50) (converted)
# T2 construct: from tissue; host or cells: pooled (mixed) human plasma
# T2 sequence (Q13093 22-441): T1 sequence (Q13093 22-441)
# Method: (2) Human Plasma Lp-PLA2 Assay (Also Known as Thio-PAF Assay) The human plasma assay was conducted using the sulphatide analog of PAF (phosphatidylcholine), which is hydrolyzed to produce phospholipids containing free sulfhydryl groups, subjected to Michael addition with CPM to generate fluorescence-enhancing maleimide. Continuous quantitative analysis of thiol could be conducted by detecting the fluorescence intensity. This assay can be used to detect the inhibitory activity of the Lp-PLA2 inhibitor on the Lp-PLA2 enzyme in human plasma. Assay Method: The compound to be tested (as shown in Table 2) was mixed with a DMSO solution in a volume ratio of (1:3), and diluted to prepare a source plate of a 384-well microplate. Then 0.01 μl of the compound was transferred via an ECHO liquid dispenser from the source plate to a 384-well Greiner 784076 low-volume plate, and 8 μl of pre-aliquoted and frozen mixed human plasma was added. The plate was centrifuged at 500 rpm for 10 seconds. After a 30 min pre-incubation, 2 μl of a substrate solution, and containing 2.5 mM 2-thio-PAF (a solution in ethanol), 32 μM CPM (a solution in DMSO) and a buffer of 3.2 mM N-ethylmaleimide (NEM) (a buffer solution consisting of 50 mM HEPES, pH 7.4, 150 mM NaCl, 1 mM CHAPS) was added by a BRAVO liquid handling station to a 384-well Greiner 784076 low-volume plate. After 2 min, the reaction was quenched with 5 μl of 5% trifluoroacetic acid. After the plate was incubated at room temperature for 40 min in a dark place, the fluorescence intensity was read at ex 380/em 485 with an Envision microplate reader, and the XL fitting model in Excel was used to perform the curve analysis and QC analysis to calculate pIC50.
SMILES,IC50 [1],IC50 [2]
O=c1nc(OCc2cccc(F)c2F)cc2n1CC[C@H]1COCCN21 [Compound 14],31.6 nM,316 nM
O=c1nc(OCc2cc(F)c(F)c(F)c2)cc2n1CC[C@@H]1COCCN21 [Compound 1],3.98 nM,63.1 nM
O=c1nc(OCc2cc(F)c(Oc3ccc(C(F)(F)F)c(Cl)c3)c(F)c2)cc2n1CC[C@@H]1COCCN21 [Compound 12],0.0501 nM,6.31 nM
O=c1nc(OCc2cc(F)c(Oc3ccc(C(F)(F)F)cc3)c(F)c2)cc2n1CC[C@H]1COCCN21 [Compound 20],0.1 nM,12.6 nM
O=c1nc(OCc2cc(F)c(Oc3cccc(OC(F)(F)F)c3)c(F)c2)cc2n1CC[C@@H]1COCCN21 [Compound 10],0.0794 nM,10 nM
O=c1nc(OCc2cc(F)c(Oc3ccc(C(F)(F)F)cc3)c(F)c2)cc2n1CC[C@@H]1COCCN21 [Compound 11],0.0794 nM,7.94 nM
O=c1nc(OCc2cc(F)c(F)cc2F)cc2n1CC[C@@H]1COCCN21 [Compound 3],31.6 nM,316 nM
O=c1nc(OCc2cc(F)c(F)c(F)c2)cc2n1CC[C@H]1COCCN21 [Compound 13],6.31 nM,79.4 nM
O=c1nc(OCc2cccc(F)c2F)cc2n1CC[C@@H]1COCCN21 [Compound 2],25.1 nM,251 nM
O=c1nc(OCc2cc(F)c(Oc3cccc(C(F)(F)F)c3)c(F)c2)cc2n1CC[C@H]1COCCN21 [Compound 19],0.0794 nM,7.94 nM
O=c1nc(OCc2cc(F)c(Oc3cccc(C(F)(F)F)c3)c(F)c2)cc2n1CC[C@@H]1COCCN21 [Compound 9],0.0631 nM,6.31 nM

# The remaining lines, values ahead:
IC50 [1],IC50 [2],SMILES
0.126 nM,12.6 nM,O=c1nc(OCc2cc(F)c(Oc3ccc(C(F)(F)F)nc3)c(F)c2)cc2n1CC[C@H]1COCCN21 [Compound 17]
0.0631 nM,3.16 nM,Cc1cc(Oc2c(F)cc(COc3cc4n(c(=O)n3)CC[C@@H]3COCCN43)cc2F)ccn1 [Compound 5]
0.0631 nM,7.94 nM,Cc1ccc(Oc2c(F)cc(COc3cc4n(c(=O)n3)CC[C@@H]3COCCN43)cc2F)cn1 [Compound 7]
0.1 nM,10 nM,Cc1ccc(Oc2c(F)cc(COc3cc4n(c(=O)n3)CC[C@H]3COCCN43)cc2F)cn1 [Compound 18]
0.316 nM,15.8 nM,Cc1ncc(Oc2c(F)cc(COc3cc4n(c(=O)n3)CC[C@@H]3COCCN43)cc2F)cn1 [Compound 8]
0.1 nM,7.94 nM,O=c1nc(OCc2cc(F)c(Oc3ccc(C(F)(F)F)nc3)c(F)c2)cc2n1CC[C@@H]1COCCN21 [Compound 6]
0.0794 nM,7.94 nM,Cc1cc(Oc2c(F)cc(COc3cc4n(c(=O)n3)CC[C@H]3COCCN43)cc2F)ccn1 [Compound 16]
0.0794 nM,6.31 nM,O=c1nc(OCc2cc(F)c(Oc3ccnc(C(F)(F)F)c3)c(F)c2)cc2n1CC[C@@H]1COCCN21 [Compound 4]
0.126 nM,12.6 nM,O=c1nc(OCc2cc(F)c(Oc3ccnc(C(F)(F)F)c3)c(F)c2)cc2n1CC[C@H]1COCCN21 [Compound 15]
